Consider 12 compounds from patent US20210038607A1, “OXADIAZOLYLTHIOPHENE DERIVATIVES USEFUL AS HISTONE DEACETYLASE INHIBITORS” (Karus Therapeutics Limited, priority 2018, published 2021).

One assay has as its target T1, Human HDAC11 (Homo sapiens, UniProt Q96DB2).
T1 construct: Human HDAC11 (full length); His (N); host or cells: baculovirus expression system
T1 sequence (Q96DB2 1-347): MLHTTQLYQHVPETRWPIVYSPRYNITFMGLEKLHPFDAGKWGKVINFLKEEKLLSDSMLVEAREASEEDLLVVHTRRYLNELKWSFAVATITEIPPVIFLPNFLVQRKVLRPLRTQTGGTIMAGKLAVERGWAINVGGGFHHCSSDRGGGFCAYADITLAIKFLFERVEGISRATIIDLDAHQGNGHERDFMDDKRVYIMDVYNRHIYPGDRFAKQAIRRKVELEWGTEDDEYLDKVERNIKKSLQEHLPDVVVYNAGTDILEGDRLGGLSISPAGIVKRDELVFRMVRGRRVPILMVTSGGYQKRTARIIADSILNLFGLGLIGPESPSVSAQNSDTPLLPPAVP
The assay is described as follows: HDAC11 biochemical assay, class IIa-specific substrate. Conditions: read-out: HDAC Isoform IC50 (nM) 11. The gist of the method:
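Full-length N-His human HDAC11 from baculovirus, 5 ng/μl, incubated with 50 μM Boc-Lys(trifluoroacetyl)-AMC for 30 min at 30 °C. Buffer: 50 mM Tris-HCl pH 8.0, 137 mM NaCl, 2.7 mM KCl, 1 mM MgCl2, 1 mg/mL BSA, 1% DMSO. Developer releases AMC; fluorescence read at 360/460 nm.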

Another assay concerns the target T2, Human HDAC1 (Homo sapiens, UniProt Q13547).
T2 construct: full length with C-terminal His-tag and C-terminal FLAG-tag; His (C); FLAG (C); host or cells: baculovirus expression system
The assay is described as follows: HDAC1 biochemical assay, AMC-labeled peptide substrate. The conditions noted are these: read-out: HDAC Isoform IC50 (nM) 1. In a few lines:
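Two-step fluorogenic read: HDAC1 deacetylates 50 μM acetyl-lysine AMC peptide RHKK(Ac)AMC for 1 h at 30° C (pH 8.0, 1% DMSO, with compound), then developer digests the product for fluorescence at Ex/Em 360/460. Enzyme is full-length human, His/FLAG-tagged, insect-cell expressed, at 0.3 ng/ul.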

The target in another assay is T3, Human HDAC10 (Homo sapiens, UniProt Q969S8).
T3 construct: Human HDAC10 (a.a. 1-481); GST (N); His (C); host or cells: baculovirus expression system
T3 sequence (Q969S8 1-481): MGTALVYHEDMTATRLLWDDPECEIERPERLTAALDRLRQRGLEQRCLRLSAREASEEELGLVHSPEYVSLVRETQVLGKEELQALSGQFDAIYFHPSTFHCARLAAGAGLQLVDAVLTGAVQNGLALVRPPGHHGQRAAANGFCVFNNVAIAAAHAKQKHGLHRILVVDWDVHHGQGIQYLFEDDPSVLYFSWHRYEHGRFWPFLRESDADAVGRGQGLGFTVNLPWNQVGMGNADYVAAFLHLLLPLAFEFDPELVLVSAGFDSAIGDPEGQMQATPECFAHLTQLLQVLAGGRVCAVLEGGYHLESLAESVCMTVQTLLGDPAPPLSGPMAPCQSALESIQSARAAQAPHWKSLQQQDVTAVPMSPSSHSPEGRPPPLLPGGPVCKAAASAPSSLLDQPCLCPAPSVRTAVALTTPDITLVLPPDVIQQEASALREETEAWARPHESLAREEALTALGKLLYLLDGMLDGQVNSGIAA
The assay can be described thus: HDAC10 biochemical assay, AMC-labeled peptide substrate. Conditions: read-out: HDAC Isoform IC50 (nM) 10. The gist of the method: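 Two-step fluorogenic read-out (Ex/Em 360/460) after developer digestion of deacetylated RHKK(Ac)AMC (50 μM). Deacetylation ran 2 h at 30 °C with 12 ng/ul HDAC10 (aa 1-481, GST/His tags, baculovirus) in Tris-HCl pH 8.0, BSA, 1% DMSO.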

The target in another assay is T4, Human HDAC2 (Homo sapiens, UniProt Q92769).
T4 construct: full length with C-terminal GST-tag; GST (C); host or cells: baculovirus expression system
The assay is described as follows: HDAC2 biochemical assay, AMC-labeled peptide substrate. The conditions noted are these: read-out: HDAC Isoform IC50 (nM) 2. The gist of the method:
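Full-length human HDAC2 with C-terminal GST tag, baculovirus-expressed, at 0.07 ng/ul with 50 μM RHKK(Ac)AMC substrate in Tris-HCl pH8.0 buffer with BSA, 1% DMSO final. Incubated 1 hour at 30° C with compounds, then developer added; fluorescence read at 360/460 Ex/Em.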

Another assay deals with T5, Human HDAC4 (Homo sapiens, UniProt P56524).
T5 construct: amino acids 627-1085 with N-terminal GST tag; GST (N); host or cells: baculovirus expression system
The assay is described as follows: HDAC4 biochemical assay, class IIa-specific substrate. The conditions noted are these: read-out: HDAC Isoform IC50 (nM) 4. In a few lines: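 Two-step fluorogenic read-out: deacetylated BOC-Lys(trifluoroacetyl)-AMC (50 μM) was digested by developer and measured at Ex/Em 360/460. Deacetylation by 0.004 ng/ul HDAC4 (aa 627-1085, N-terminal GST) ran 30 min at room temperature, pH 8.0 Tris buffer, 1 mg/mL BSA, 1% DMSO.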

Another assay has as its target T6, Human HDAC5 (Homo sapiens, UniProt Q9UQL6).
T6 construct: full length with C-terminal His tag, MW=51.1 kDa; His (C); host or cells: baculovirus expression system
The assay can be described thus: HDAC5 biochemical assay, class IIa-specific substrate. Conditions: read-out: HDAC Isoform IC50 (nM) 5. In a few lines: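 Two-step fluorogenic read-out: deacetylated trifluoroacetyl-lysine AMC substrate (50 μM) digested by developer, measured at Ex/Em 360/460. Deacetylation step: 0.05 ng/ul His-tagged full-length baculoviral enzyme with compound, 30 min, room temperature, pH 8.0 Tris with 1 mg/mL BSA and 1% DMSO.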

As usually defined, the IC50 is the concentration that gives 50% inhibition.

T2 sequence (Q13547 whole entry): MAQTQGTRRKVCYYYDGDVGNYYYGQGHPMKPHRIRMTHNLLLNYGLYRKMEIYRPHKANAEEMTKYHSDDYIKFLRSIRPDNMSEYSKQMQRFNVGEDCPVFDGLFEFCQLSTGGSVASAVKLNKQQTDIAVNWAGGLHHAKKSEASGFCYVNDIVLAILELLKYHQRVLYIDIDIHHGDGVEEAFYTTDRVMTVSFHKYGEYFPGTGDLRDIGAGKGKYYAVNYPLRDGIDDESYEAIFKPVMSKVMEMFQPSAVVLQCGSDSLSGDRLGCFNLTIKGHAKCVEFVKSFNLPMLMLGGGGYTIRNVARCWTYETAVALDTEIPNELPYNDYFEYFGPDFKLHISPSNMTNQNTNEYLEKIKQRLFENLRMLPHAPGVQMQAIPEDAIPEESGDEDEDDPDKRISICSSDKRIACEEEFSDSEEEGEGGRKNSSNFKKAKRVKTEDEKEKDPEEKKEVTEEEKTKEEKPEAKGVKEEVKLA
T5 sequence (P56524 627-1084 limits assumed): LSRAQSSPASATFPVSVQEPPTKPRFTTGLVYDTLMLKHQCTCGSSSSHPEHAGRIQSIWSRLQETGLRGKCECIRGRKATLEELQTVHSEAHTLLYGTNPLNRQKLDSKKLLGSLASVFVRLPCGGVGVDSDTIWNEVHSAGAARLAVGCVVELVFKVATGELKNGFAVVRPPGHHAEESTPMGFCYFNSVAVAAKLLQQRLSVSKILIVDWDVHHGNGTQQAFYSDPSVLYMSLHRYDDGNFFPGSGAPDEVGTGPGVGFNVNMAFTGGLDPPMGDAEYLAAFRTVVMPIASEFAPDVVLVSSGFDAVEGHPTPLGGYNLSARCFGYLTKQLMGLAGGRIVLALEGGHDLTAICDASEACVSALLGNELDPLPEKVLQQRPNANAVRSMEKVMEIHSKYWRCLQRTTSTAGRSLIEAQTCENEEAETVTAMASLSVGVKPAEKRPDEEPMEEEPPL
T4 sequence (Q92769 whole entry): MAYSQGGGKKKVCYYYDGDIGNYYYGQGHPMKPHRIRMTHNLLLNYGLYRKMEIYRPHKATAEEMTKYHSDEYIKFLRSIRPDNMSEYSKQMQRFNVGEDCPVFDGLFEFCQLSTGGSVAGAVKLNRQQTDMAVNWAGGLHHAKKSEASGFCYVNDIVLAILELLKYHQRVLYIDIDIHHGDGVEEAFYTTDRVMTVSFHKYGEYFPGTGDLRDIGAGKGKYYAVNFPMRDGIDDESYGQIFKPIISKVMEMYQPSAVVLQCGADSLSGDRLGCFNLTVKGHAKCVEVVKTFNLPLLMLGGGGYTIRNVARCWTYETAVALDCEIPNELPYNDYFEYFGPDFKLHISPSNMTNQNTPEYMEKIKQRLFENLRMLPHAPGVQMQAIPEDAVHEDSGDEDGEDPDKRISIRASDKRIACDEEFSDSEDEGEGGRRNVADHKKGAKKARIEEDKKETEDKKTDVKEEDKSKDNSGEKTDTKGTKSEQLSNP
T6 sequence (Q9UQL6 656-1122 limits assumed): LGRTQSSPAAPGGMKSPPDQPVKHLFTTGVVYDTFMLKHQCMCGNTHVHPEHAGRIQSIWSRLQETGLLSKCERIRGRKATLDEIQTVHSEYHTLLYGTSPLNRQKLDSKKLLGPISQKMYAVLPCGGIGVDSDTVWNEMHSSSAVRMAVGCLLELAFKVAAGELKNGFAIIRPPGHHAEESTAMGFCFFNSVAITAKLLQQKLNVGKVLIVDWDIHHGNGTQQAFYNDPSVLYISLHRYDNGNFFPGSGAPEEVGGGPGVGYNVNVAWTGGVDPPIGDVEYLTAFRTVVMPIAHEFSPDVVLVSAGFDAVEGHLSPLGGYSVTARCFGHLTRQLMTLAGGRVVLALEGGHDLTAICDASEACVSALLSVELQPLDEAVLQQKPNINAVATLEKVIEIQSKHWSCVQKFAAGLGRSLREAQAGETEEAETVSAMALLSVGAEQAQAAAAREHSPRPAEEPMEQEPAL

With `NC(=O)c1cnnc(N(Cc2ccc(-c3noc(C(F)(F)F)n3)s2)c2cnccn2)c1` [Example DX, 6-[(Pyrazin-2-yl)({5-[5-(trifluoromethyl)-1,2,4-oxadiazol-3-yl]thiophen-2-yl}methyl)amino]pyridazine-4-carboxamide], the IC50 at Human HDAC11 is more than 10000 nM; at Human HDAC1 it was more than 10000 nM; at Human HDAC10 it was more than 10000 nM; at Human HDAC2 it was more than 10000 nM; at Human HDAC4, not above 1000 nM; at Human HDAC5 it was not above 500 nM.

Regarding `CC1(c2cnnc(N(Cc3ccc(-c4noc(C(F)(F)F)n4)s3)c3cnccn3)c2)COC1` [Example GT, 5-(3-Methyloxetan-3-yl)-N-(pyrazin-2-yl)-N-({5-[5-(trifluoromethyl)-1,2,4-oxadiazol-3-yl]thiophen-2-yl}methyl)pyridazin-3-amine], the IC50 was more than 10000 nM at Human HDAC11; more than 10000 nM at Human HDAC1; more than 10000 nM at Human HDAC10; more than 10000 nM at Human HDAC2; not above 10000 nM on Human HDAC4; not above 1000 nM at Human HDAC5.

For `O=C(c1ccc(N(Cc2ccc(-c3noc(C(F)(F)F)n3)s2)c2cnccn2)nn1)N1CCC1` [Example FF, 6-(Azetidine-1-carbonyl)-N-(pyrazin-2-yl)-N-({5-[5-(trifluoromethyl)-1,2,4-oxadiazol-3-yl]thiophen-2-yl}methyl)pyridazin-3-amine], the IC50 is more than 10000 nM at Human HDAC11; not above 10000 nM on Human HDAC1; more than 10000 nM on Human HDAC10; more than 10000 nM on Human HDAC2; not above 500 nM at Human HDAC4; not above 500 nM on Human HDAC5.

As to `O=C(O)c1cnnc(N(Cc2ccc(-c3noc(C(F)(F)F)n3)s2)c2cnccn2)c1` [Example DW, 6-[(Pyrazin-2-yl)({5-[5-(trifluoromethyl)-1,2,4-oxadiazol-3-yl]thiophen-2-yl}methyl)amino]pyridazine-4-carboxylic acid], the 50% inhibitory concentration (IC50) at Human HDAC11 was more than 10000 nM; on Human HDAC1 it was more than 10000 nM; on Human HDAC10, more than 10000 nM; at Human HDAC2, more than 10000 nM; at Human HDAC4 it was not above 10000 nM; on Human HDAC5, not above 10000 nM.

With `FC(F)(F)c1nc(-c2ccc(CN(c3cnccn3)c3cnc(N4CCOCC4)cn3)s2)no1` [Example BM, 5-(Morpholin-4-yl)-N-(pyrazin-2-yl)-N-({5-[5-(trifluoromethyl)-1,2,4-oxadiazol-3-yl]thiophen-2-yl}methyl)pyrazin-2-amine], the IC50 was more than 10000 nM on Human HDAC11; not above 10000 nM on Human HDAC1; more than 10000 nM on Human HDAC10; more than 10000 nM at Human HDAC2; not above 1000 nM on Human HDAC4; not above 1000 nM at Human HDAC5.

Regarding `COc1nccnc1N(Cc1ccc(-c2noc(C(F)(F)F)n2)s1)c1cnccn1` [Example BF, 3-Methoxy-N-(pyrazin-2-yl)-N-({5-[5-(trifluoromethyl)-1,2,4-oxadiazol-3-yl]thiophen-2-yl}methyl)pyrazin-2-amine], the IC50 at Human HDAC11 is more than 10000 nM; on Human HDAC1, more than 10000 nM; at Human HDAC10, more than 10000 nM; at Human HDAC2 it was more than 10000 nM; on Human HDAC4 it was not above 10000 nM; at Human HDAC5, not above 10000 nM.

Regarding `CC(C)(O)c1cnnc(N(Cc2ccc(-c3noc(C(F)(F)F)n3)s2)c2cnccn2)c1` [Example GS, 2-{6-[(Pyrazin-2-yl)({5-[5-(trifluoromethyl)-1,2,4-oxadiazol-3-yl]thiophen-2-yl}methyl)amino]pyridazin-4-yl}propan-2-ol], the IC50 on Human HDAC11 was more than 10000 nM; at Human HDAC1 it was not above 10000 nM; on Human HDAC10, more than 10000 nM; on Human HDAC2, more than 10000 nM; at Human HDAC4 it was not above 1000 nM; on Human HDAC5, not above 1000 nM.

On to `CC(=O)Nc1cnnc(N(Cc2ccc(-c3noc(C(F)(F)F)n3)s2)c2cnccn2)c1` [Example FM, N-{6-[(Pyrazin-2-yl)({5-[5-(trifluoromethyl)-1,2,4-oxadiazol-3-yl]thiophen-2-yl}methyl)amino]pyridazin-4-yl}acetamide], for which the half-inhibitory concentration (IC50) on Human HDAC11 was more than 10000 nM; on Human HDAC1, not above 10000 nM; on Human HDAC10, more than 10000 nM; at Human HDAC2, more than 10000 nM; on Human HDAC4, not above 1000 nM; on Human HDAC5, not above 500 nM.

On to `FC(F)(F)c1nc(-c2ccc(CN(c3cnccn3)c3cc(CN4CCOCC4)ccn3)s2)no1` [Example GI, N-{4-[(Morpholin-4-yl)methyl]pyridin-2-yl}-N-({5-[5-(trifluoromethyl)-1,2,4-oxadiazol-3-yl]thiophen-2-yl}methyl)pyrazin-2-amine], for which the half-inhibitory concentration (IC50) was more than 10000 nM at Human HDAC11; more than 10000 nM at Human HDAC1; more than 10000 nM at Human HDAC10; more than 10000 nM at Human HDAC2; not above 10000 nM on Human HDAC4; not above 10000 nM on Human HDAC5.

For the compound `O=C(c1nccnc1N(Cc1ccc(-c2noc(C(F)(F)F)n2)s1)c1cnccn1)N1CC(O)(C(F)(F)F)C1` [Example GQ, 1-{3-[(Pyrazin-2-yl)({5-[5-(trifluoromethyl)-1,2,4-oxadiazol-3-yl]thiophen-2-yl}methyl)amino]pyrazine-2-carbonyl}-3-(trifluoromethyl)azetidin-3-ol], the IC50 at Human HDAC11 is more than 10000 nM; at Human HDAC1 it was more than 10000 nM; at Human HDAC10 it was more than 10000 nM; on Human HDAC2, more than 10000 nM; at Human HDAC4, not above 10000 nM; on Human HDAC5, not above 10000 nM.

`FC(F)(F)c1nc(-c2ccc(CN(c3ccccn3)c3ccccn3)s2)no1` [Example U, N-(Pyridin-2-yl)-N-({5-[5-(trifluoromethyl)-1,2,4-oxadiazol-3-yl]thiophen-2-yl}methyl)pyridin-2-amine]: the IC50 on Human HDAC11 was more than 10000 nM; at Human HDAC1 it was more than 10000 nM; at Human HDAC10, more than 10000 nM; on Human HDAC2 it was more than 10000 nM; on Human HDAC4, not above 10000 nM; on Human HDAC5 it was not above 10000 nM.

Regarding `Fc1ccnc(N(Cc2ccc(-c3noc(C(F)(F)F)n3)s2)c2cnccn2)c1` [Example AG, N-(4-Fluoropyridin-2-yl)-N-({5-[5-(trifluoromethyl)-1,2,4-oxadiazol-3-yl]thiophen-2-yl}methyl)pyrazin-2-amine], the IC50 was more than 10000 nM on Human HDAC11; more than 10000 nM on Human HDAC1; more than 10000 nM on Human HDAC10; more than 10000 nM on Human HDAC2; not above 10000 nM at Human HDAC4; not above 10000 nM on Human HDAC5.
